Laboratory results reported in US20240307375A1, “PHARMACEUTICAL COMPOSITION FOR PREVENTING AND/OR TREATING KIDNEY INJURY, AND AUTOPHAGY ACTIVATOR” (OSAKA UNIVERSITY, priority 2021, published 2024).

What was measured:
[1] = system: Kidney Injury Induced by Cisplatin Administration; assay: Cisplatin-induced kidney injury in mice, PAS histology of renal cortex; type: in vivo
Method: Wild-type male mice were used as test animals. The mice had free access to water and standard mouse chow. […] The same amount of physiological saline was intraperitoneally administered to the control group. A sample liquid was prepared by suspending Compound 011 (test compound) in PBS. […] The same amount of PBS was orally administered to the control group. […] Additionally, the mice that were not administered with cisplatin were treated in a similar manner, and the blood and kidneys were collected. The mice were thus divided into four groups. The mice were perfused transcardially with PBS (pH of 7.4). The collected kidneys were sliced, post-fixed in 4% PFA (paraformaldehyde), and embedded in paraffin or frozen in OCT compound to obtain section samples of renal cortex. The section samples of the four groups were stained with PAS (Periodic acid-Schiff) and observed under an optical microscope (400×) (FIG. 1). The renal tubular injury was quantitatively evaluated using PAS-stained section samples. […] The renal tubular injury was defined to be cellular necrosis, tubular dilatation, and cast formation.

[2] = system: Kidney Injury Induced by Cisplatin Administration; assay: Plasma creatinine and urea nitrogen in cisplatin-treated mice; type: in vivo
Method: Wild-type male mice were used as test animals. […] The same amount of physiological saline was intraperitoneally administered to the control group. […] The same amount of PBS was orally administered to the control group. […] Plasma was obtained from the blood collected from the mice to measure the creatinine concentration and the urea nitrogen concentration (n=2 to 4 for each group). The creatinine concentration was measured by using a BioAssay Systems' Creatinine Assay Kit (DICT-500), and the urea nitrogen concentration was measured by using a Wako BUN-test. […] Additionally, in FIG. 3, “Cre” represents the creatinine concentration and “BUN” represents the serum urea nitrogen concentration.

[3] = system: p53-positive cells / p62-positive dots (DNA damage, autophagy substrate); assay: p53 and p62 immunostaining of renal cortex after cisplatin administration; type: in vivo, mice; settings: cisplatin 15 mg/kg i.p. plus test compound 10 mg/kg orally
Method: The kidneys of mice were collected as in Test Example 1. The kidneys were subjected to autoclaving at 120° C. for 10 minutes in a […] citrate buffer (pH of 6.0) for […] and to blocking with 1.5% bovine serum albumin in PBS for 60 minutes. Subsequently, paraffin embedding was performed to prepare section samples of renal cortex of the four groups.
The sections were incubated overnight at 4° C. with p53 or p62 primary antibodies.
For each group (n=2 to 4), the number of p53-positive cells or p62-positive dots were counted in fields at a magnification of 200× (p53) or 400× (p62) to calculate the average values.

[4] = system: autophagy flux (GFP-LC3 dots per proximal tubule); assay: Autophagy flux in kidneys of GFP-LC3 transgenic mice after cisplatin, with or without chloroquine; type: in vivo
Method: The test animals were 8-week-old male autophagy-monitoring mice (GFP-LC3 transgenic mice). The mice had free access to water and standard mouse chow.
The test compound (compound 011) was suspended in PBS to prepare a sample liquid.
Six hours before anesthetization of the mice, a chloroquine solution was administered intraperitoneally as a lysosomal inhibitor at 50 μg/g body weight. Separately, a group in which the chloroquine solution was not administered was also prepared. The chloroquine solution was prepared by dissolving chloroquine (Sigma-Aldrich) in distilled water at a concentration of 5 mg/mL.
The autophagy flux was evaluated by quantifying GFP-LC3 dots (GFP-positive dots).
The kidney sections were immunostained with LRP2/Megalin (red), which is a marker for proximal tubular cells, and contrast-stained with DAPI (blue).
The number of GFP-LC3 dots (green) per proximal tubule in each group (n=5) was quantified in 10 high-magnification fields (600×), and the average values were used for evaluation.

A549 cells = assay: LC3-II Western blotting in A549 cells with or without Bafilomycin A1; type: cell-based, human; settings: 10 μM test compound, 6 hours, Bafilomycin A1 250 nM
Method: A549 cells (1.0×10^5 cells/well), i.e., human lung tumor cells, were seeded in a 6-well plate containing DMEM medium and cultured for 1 day, and the cells were washed with PBS.
A DMEM medium containing Bafilomycin Al (final concentration: 250 nM; also referred to as “Baf”) (Baf(+)) and a DMEM medium not containing Baf (Baf(−)) were prepared. Additionally, a Baf-containing DMEM medium with DMSO or Compound 011 (the test compound) and a Baf-free DMEM medium with DMSO or Compound 011 (the test compound) were also prepared, thus preparing a total of six different media. The final concentration of DMSO was 0.1% and the final concentration of the test compound was 10 μM. Separately, an Earle's balanced salt solution (EBSS; starvation) containing Baf and an EBSS not containing Baf were also prepared. 3 mL of one of the six types of media and two types of EBSSs was added to each well containing washed cells, followed by culturing for 6 hours. After washing the cells three times with PBS, RIPA buffer was added at 4° C., and the cells were allowed to stand on ice for 30 minute. The cells were then quickly and carefully collected from the wells. After the cells were collected, centrifugation (15000 rpm, 4° C., 30 min) was performed, and the supernatant was collected to obtain a protein solution. […]

[5] = cisplatin 15 mg/kg i.p. plus test compound 10 mg/kg orally, effect on cisplatin-induced increase
[6] = test compound 10 mg/kg orally, no cisplatin

Row | SMILES | renal tubular injury (PAS-stained renal cortex sections) ([1]; cisplatin 15 mg/kg i.p. plus test compound 10 mg/kg orally for 3 consecutive days, 3 days after cisplatin) | score of renal tubular injury (PAS injury score) ([1]; cisplatin 15 mg/kg i.p. plus test compound 10 mg/kg orally, 10-scale grade) | change in PAS-stained renal cortex versus vehicle administration group ([1]; test compound 10 mg/kg orally for 3 days, no cisplatin) | plasma creatinine concentration [2, 5] | serum urea nitrogen (BUN) concentration [2, 5] | plasma creatinine concentration [2, 6] | serum urea nitrogen (BUN) concentration [2, 6] | number of p53-positive cells [3] | number of p62-positive dots [3] | number of GFP-LC3 dots per proximal tubule ([4]; cisplatin 15 mg/kg i.p. plus test compound 10 mg/kg orally, 2 days after cisplatin, without chloroquine) | number of GFP-LC3 dots per proximal tubule ([4]; cisplatin plus test compound 10 mg/kg orally plus chloroquine 50 μg/g i.p. 6 hours before anesthetization) | LC3-II protein level with Baf treatment relative to without Baf treatment (A549 cells) | degree of the LC3-II increase with Baf treatment compared with starvation (EBSS) (A549 cells) | number of GFP-LC3 dots per proximal tubule ([4]; cisplatin 15 mg/kg i.p. alone, without chloroquine) | number of GFP-LC3 dots per proximal tubule ([4]; cisplatin 15 mg/kg i.p. plus chloroquine on the second day, no test compound)
1 | O=C(O)c1cnc(N2CCN(c3noc4cccc(C(F)(F)F)c34)CC2)c(Cl)c1 [Compound 011, 5-Chloro-6-(4-(4-(trifluoromethyl)benzo[d]isoxazol-3-yl)piperazin-1-yl)nicotinic acid] | clearly attenuated renal tubular injury caused by cisplatin | clearly attenuated | no apparent change | clearly suppressed | clearly suppressed | little or no change | little or no change | clearly reduced | clearly reduced | a decrease in GFP-LC3 dots | significantly increased | significant increase in LC3-II with the Baf treatment | comparable to that of starvation | – | –
2 | N.N.[Cl][Pt][Cl] [cisplatin, reference compound] | – | – | – | – | – | – | – | – | – | – | – | – | – | increased GFP-LC3 dots | no increase in GFP-LC3 dots
